Reference: ChEMBL document CHEMBL1201862, “PubChem BioAssay data set” (2004)
Activity calls are given as the source filed them.

Key:
P388/ADR = assay: cells; format: functional; details: Mus musculus
SN12K1 = assay: cells; format: functional; details: Homo sapiens
P388 = assay: cells; format: functional; details: Mus musculus
[1] = Fluorescence-based cell-based high throughput dose response assay for inhibitors of the interaction of nucleotide-binding oligomerization domain containing 2 (NOD2) and the receptor-interacting serine-threonine kinase 2 (RIPK2).; format: functional; details: Homo sapiens
HEK293 [2] = assay: optical interference in Abeta FP readout, dose response, artefact control for IDE activator project, biochemical, fluorescence polarization (AID 588442); format: functional, cell-based; details: Homo sapiens
[3] = molecular target: T1, Ubiquitin-conjugating enzyme E2 N (Homo sapiens, UniProt P61088); format: functional
T1 sequence (P61088 whole entry): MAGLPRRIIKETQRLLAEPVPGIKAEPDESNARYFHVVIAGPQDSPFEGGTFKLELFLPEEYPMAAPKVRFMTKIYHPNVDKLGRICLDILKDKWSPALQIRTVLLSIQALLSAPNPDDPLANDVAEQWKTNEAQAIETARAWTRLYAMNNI

[4] = molecular target: T1, Ubiquitin-conjugating enzyme E2 N; format: functional; remark: listed apart in the source
HEK293 [5] = assay: HEK cell cytotoxicity by LDH release, dose response, cytotoxicity control for IDE activator project, fluorescence, HEK cells (AID 588440); format: functional, cell-based, Homo sapiens; details: Homo sapiens, HEK293;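 note: cytotoxicity by LDH release measuring loss of membrane integrity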
Bcl-2-related protein A1 = molecular target: T2, Bcl-2-related protein A1 (Mus musculus, UniProt Q07440); format: functional;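 note: confirmatory dose–response counterscreen on Bfl-1, used to check hits from a UBC13 polyubiquitin inhibitor campaign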
T2 sequence (Q07440 whole entry): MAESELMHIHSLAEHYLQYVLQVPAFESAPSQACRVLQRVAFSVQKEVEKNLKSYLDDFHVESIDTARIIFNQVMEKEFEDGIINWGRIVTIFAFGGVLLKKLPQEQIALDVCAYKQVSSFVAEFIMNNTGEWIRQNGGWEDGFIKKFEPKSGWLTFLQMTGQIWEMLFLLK

Insulin-degrading enzyme [6] = molecular target: T3, Insulin-degrading enzyme (Homo sapiens, UniProt P14735); assay: activators of recombinant IDE enzyme, dose response, counter-screen for IDE activator project, biochemical, fluorescence polarization (AID 588681)
T3 sequence (P14735 whole entry): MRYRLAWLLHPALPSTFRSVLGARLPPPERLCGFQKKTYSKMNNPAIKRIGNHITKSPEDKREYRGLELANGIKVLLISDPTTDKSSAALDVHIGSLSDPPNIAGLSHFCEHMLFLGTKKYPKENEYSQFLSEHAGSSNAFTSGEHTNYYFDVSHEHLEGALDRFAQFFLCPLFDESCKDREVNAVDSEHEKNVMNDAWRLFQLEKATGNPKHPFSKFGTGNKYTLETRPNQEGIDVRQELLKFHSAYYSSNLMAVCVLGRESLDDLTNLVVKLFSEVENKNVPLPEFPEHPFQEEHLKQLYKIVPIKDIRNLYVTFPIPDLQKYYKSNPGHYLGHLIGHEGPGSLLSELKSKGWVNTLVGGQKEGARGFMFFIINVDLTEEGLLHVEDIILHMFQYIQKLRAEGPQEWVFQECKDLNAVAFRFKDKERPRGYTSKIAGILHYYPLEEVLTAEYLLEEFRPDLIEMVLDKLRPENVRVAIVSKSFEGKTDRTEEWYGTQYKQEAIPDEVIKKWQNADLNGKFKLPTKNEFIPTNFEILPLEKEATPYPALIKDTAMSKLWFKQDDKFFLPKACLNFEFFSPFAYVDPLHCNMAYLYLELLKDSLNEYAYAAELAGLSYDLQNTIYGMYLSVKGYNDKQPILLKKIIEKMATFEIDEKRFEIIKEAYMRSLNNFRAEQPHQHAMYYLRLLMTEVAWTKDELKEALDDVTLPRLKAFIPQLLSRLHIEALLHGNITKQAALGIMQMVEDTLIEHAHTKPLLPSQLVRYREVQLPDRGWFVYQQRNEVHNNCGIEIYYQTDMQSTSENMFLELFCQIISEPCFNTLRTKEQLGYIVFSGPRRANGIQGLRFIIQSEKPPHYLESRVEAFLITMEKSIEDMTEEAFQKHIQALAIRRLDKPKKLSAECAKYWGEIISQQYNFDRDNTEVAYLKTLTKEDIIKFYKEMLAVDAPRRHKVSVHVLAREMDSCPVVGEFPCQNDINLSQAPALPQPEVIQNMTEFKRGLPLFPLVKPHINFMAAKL

Insulin-degrading enzyme [7] = molecular target: T3, Insulin-degrading enzyme; assay: activators of endogenous IDE in HEK cells, dose response, cell-based, fluorescence polarization (AID 588439); format: functional
[8] = molecular target: T4, Adenosylmethionine-8-amino-7-oxononanoate aminotransferase (Mycobacterium tuberculosis, UniProt P9WQ81); assay: Mycobacterium tuberculosis BioA enzyme inhibitor Measured in Biochemical System Using Plate Reader - 2163-02_Inhibitor_Dose_CherryPick_Activity.; format: functional, Mycobacterium tuberculosis UT205
T4 sequence (P9WQ81 whole entry): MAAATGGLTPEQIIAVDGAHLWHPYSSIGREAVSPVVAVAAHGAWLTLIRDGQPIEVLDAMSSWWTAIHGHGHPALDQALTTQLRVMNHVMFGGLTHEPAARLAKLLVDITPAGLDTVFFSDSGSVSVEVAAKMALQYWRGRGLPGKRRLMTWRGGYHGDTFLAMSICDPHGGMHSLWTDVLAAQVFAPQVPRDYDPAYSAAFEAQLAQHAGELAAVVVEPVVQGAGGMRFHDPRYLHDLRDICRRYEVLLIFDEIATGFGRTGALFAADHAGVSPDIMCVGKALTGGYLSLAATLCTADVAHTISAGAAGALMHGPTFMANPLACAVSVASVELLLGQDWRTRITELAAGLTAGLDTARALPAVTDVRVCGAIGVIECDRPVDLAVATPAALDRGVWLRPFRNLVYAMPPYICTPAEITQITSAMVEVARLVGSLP

[9] = molecular target: T5, Long-chain-fatty-acid--AMP ligase FadD28 (Mycobacterium tuberculosis, UniProt P9WQ59); assay: Fluorescence polarization aasay to screen for inhibitors that compete for the binding of FadD28 to a bisubstrate Measured in Biochemical System Using Plate Reader - 2147-01_Inhibitor_Dose_CherryPick_Activity.; format: functional, Mycobacterium tuberculosis H37Rv
T5 sequence (P9WQ59 whole entry): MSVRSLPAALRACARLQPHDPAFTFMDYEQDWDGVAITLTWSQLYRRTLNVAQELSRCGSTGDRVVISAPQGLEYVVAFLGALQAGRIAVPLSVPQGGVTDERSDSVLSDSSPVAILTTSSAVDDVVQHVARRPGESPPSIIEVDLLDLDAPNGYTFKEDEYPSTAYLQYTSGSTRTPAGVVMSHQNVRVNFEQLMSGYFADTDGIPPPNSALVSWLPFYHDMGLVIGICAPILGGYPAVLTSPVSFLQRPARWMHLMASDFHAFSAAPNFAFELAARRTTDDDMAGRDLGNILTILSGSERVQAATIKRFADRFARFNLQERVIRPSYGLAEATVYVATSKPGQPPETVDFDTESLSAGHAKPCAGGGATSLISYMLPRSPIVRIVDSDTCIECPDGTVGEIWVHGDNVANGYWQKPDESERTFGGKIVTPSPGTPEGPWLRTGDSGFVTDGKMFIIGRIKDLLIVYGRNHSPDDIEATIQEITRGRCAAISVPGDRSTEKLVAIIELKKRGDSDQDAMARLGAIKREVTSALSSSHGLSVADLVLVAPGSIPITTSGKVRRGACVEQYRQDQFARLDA

[10] = molecular target: T6, Type-1 angiotensin II receptor (Homo sapiens, UniProt P30556); assay: AT1 receptor antagonists, dose response, selectivity assay for APJ receptor antagonist project, cell-based, uHTS hits (AID 463214); format: functional;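 note: antagonist potency against angiotensin II stimulated AT1 response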
T6 sequence (P30556 whole entry): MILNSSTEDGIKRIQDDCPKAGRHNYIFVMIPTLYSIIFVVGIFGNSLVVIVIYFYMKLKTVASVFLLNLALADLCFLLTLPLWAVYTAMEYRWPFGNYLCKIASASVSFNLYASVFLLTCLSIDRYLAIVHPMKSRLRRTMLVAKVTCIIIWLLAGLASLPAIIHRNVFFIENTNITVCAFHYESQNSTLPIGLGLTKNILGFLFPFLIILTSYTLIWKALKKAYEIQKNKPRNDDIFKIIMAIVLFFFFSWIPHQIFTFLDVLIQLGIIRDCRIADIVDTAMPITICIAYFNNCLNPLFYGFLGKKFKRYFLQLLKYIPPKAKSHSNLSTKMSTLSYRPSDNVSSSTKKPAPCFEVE

Beta-galactosidase = Beta-galactosidase (Escherichia coli, UniProt Q8VNN2); assay: PubChem AID 485352; format: functional
Sequence of Beta-galactosidase (Q8VNN2 whole entry): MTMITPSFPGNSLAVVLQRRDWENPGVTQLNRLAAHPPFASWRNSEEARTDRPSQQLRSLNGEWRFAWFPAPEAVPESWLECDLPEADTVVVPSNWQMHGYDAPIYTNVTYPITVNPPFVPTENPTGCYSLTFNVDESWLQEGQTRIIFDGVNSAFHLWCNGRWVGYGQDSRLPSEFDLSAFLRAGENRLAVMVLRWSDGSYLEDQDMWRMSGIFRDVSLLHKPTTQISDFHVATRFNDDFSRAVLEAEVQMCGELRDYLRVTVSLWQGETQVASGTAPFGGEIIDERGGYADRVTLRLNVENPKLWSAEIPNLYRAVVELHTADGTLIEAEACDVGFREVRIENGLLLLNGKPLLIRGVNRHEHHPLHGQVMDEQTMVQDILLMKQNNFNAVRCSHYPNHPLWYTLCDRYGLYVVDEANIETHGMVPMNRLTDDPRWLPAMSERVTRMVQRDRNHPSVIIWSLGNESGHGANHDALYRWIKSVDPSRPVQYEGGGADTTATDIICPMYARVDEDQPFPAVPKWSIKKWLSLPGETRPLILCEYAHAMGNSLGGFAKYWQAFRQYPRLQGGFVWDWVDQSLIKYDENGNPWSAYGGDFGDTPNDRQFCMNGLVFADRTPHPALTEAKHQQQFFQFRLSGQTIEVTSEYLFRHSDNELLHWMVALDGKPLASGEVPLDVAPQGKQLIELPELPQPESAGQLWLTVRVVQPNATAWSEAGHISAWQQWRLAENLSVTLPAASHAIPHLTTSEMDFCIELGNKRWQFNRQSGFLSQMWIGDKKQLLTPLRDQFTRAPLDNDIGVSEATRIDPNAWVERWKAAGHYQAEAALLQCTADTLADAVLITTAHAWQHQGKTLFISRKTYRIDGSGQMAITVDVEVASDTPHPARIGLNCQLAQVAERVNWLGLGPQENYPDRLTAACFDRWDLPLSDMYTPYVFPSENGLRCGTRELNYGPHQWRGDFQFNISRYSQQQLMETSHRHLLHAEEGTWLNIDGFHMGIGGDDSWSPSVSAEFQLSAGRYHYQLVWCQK

[11] = molecular target: T7, DNA repair protein RAD52 homolog (Homo sapiens, UniProt P43351); format: functional, biochemical
T7 sequence (P43351 whole entry): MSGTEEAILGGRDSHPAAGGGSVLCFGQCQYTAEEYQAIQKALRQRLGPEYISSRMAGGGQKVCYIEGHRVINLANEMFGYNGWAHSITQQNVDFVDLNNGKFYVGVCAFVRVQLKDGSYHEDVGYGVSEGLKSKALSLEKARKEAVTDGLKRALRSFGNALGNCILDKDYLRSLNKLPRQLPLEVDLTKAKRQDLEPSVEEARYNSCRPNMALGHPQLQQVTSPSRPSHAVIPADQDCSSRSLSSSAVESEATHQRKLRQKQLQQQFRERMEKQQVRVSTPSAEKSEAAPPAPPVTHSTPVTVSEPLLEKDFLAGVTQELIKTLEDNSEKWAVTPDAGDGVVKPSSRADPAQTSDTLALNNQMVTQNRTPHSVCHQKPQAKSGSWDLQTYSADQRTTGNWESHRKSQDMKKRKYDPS

Steroidogenic factor 1 = Steroidogenic factor 1 (Homo sapiens, UniProt Q13285); assay: Counterscreen for inverse agonists of the liver receptor homolog-1 (LRH-1; NR5A2): Luminescence-based cell-based high throughput dose response assay to identify inverse agonists of the Steroidogenic Factor 1 Nuclear Receptor (SF1; NR5A1).; format: functional
Sequence of Steroidogenic factor 1 (Q13285 whole entry): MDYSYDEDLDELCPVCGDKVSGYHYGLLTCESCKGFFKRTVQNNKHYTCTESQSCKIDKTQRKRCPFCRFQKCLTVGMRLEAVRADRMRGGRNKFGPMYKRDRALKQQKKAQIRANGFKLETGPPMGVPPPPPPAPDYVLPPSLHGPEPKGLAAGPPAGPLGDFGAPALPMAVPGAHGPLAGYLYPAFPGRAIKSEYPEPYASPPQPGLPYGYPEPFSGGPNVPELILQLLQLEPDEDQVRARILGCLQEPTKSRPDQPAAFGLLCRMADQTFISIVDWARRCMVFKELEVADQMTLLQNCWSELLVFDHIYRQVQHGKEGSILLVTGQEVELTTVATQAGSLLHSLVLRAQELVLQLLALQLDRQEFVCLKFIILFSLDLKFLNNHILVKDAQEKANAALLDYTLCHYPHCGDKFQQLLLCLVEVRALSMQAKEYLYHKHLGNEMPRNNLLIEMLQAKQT

[12] = molecular target: Nuclear receptor subfamily 5 group A member 2 (Homo sapiens, UniProt O00482); format: functional, cell-based;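 note: HEK293T cells transfected with LRH-1 and a StAR promoter luciferase reporter; potency for inhibitors that lower LRH-1 driven reporter light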
Sequence of Nuclear receptor subfamily 5 group A member 2 (O00482 whole entry): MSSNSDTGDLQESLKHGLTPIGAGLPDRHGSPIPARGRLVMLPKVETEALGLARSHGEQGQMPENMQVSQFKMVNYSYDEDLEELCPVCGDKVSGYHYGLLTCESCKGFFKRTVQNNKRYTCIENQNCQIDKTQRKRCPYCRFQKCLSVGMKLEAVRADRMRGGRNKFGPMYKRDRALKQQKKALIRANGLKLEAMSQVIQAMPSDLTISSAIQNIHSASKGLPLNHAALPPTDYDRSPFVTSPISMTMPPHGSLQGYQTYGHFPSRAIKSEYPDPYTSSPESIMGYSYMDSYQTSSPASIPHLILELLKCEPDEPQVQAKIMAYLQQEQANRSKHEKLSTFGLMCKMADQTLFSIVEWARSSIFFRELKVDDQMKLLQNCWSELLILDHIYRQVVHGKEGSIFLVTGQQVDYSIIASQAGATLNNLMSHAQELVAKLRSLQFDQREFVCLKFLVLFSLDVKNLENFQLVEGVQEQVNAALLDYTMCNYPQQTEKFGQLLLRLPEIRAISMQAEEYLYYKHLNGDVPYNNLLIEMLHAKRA

CC(=O)OC1C(O)C(C)OC(OC2C(OC(=O)C3CCC4C(C3)OC3(CC(OC(=O)/C=C/c5ccccc5)C(C)CO3)C43CO3)OC(C)C(O)C2OC(C)=O)C1O (stereo not drawn)
GI50 (P388/ADR): > 1.75 µM (inactive) | GI50 (SN12K1): 0.0172 µM (active) | GI50 (P388): 0.0895 µM (active) | IC50 [1]: 49.8 µM (inactive)

C#CCOCCOCCOCCNc1nc(N2CCN(C(=O)CCCCCCCCCCNC(=O)[C@H](CCCCN)n3cc(C)nn3)CC2)nc(N2CCN(C(=O)CCCCCCCCCCNC(=O)[C@@H]([C@H](C)O)n3cc(C)nn3)CC2)n1
EC50 (HEK293 [2]): > 54.7 µM (inactive) | IC50 [3]: 11.1 µM (active) | IC50 [4]: 6.61 µM (active) | IC50 (HEK293 [5]): 11.4 µM (inactive) | IC50 (Bcl-2-related protein A1): > 20 µM (inactive) | EC50 (Insulin-degrading enzyme [6]): > 54.7 µM (inactive) | EC50 (Insulin-degrading enzyme [7]): > 54.7 µM (inactive)

COc1cccc(-c2ccc3c(c2)[C@H]2[C@H](CCN2C(=O)C2CCC2)[C@@H](CO)N3)c1
AC50 [8]: 7.13 µM (active)

O=C(NNC(=S)Nc1ccc(Cl)cc1Cl)c1ccc(N2CCOCC2)c([N+](=O)[O-])c1
AC50 [9]: 40.2 µM (active) | IC50 [10]: > 40 µM (not active) | EC50 (Beta-galactosidase): > 40 µM (inactive)

COCCN1CCn2c(nc3cc(Nc4nnc(C)c5ccccc45)ccc32)C1
AC50 [11]: 11.9 µM (active)

COc1ccc(NC(=O)COC(=O)c2cc(S(=O)(=O)N3CCCC3)ccc2O)cc1
IC50 (Steroidogenic factor 1): 11.2 µM (inactive) | IC50 [12]: 35.9 µM (inactive)
